A word on the inhibition: it is the relative decrease from the control value, in per cent. One may read the IC50 as the concentration at which inhibition is half-maximal.

Molecules are shown by their SMILES.

In series [1] the target is SARS-CoV-2 Main Protease (SARS-CoV-2) (UniProt P0DTD1).
The target is the same in series [2]. This is another data set of the same source.

For the molecule `N#Cc1cnn(-c2ccccc2NC(=O)Cc2ccn[nH]2)c1N`, the relative solubility at 20 uM was determined as 1 and the relative solubility at 100 uM was 0.96. The inhibition in series [1] (20.0 µM) was -9.14%. Also, the inhibition in series [1] (50.0 µM) worked out at 2.96%. The inhibition in series [2] (20.0 µM) amounted to 0%.
Turning to `O=C(C1CCN(c2ccncc2)CC1)N1CCOCC1`, the relative solubility at 20 uM worked out at 1 and the relative solubility at 100 uM was determined as 1. The inhibition in series [1] (50.0 µM) is -22.6%. In series [2] (20.0 µM), the inhibition was found to be 0%. Also, the inhibition in series [2] (50.0 µM) was found to be 0%.
`NS(=O)(=O)c1ccc(N2CCC(N3CCCCC3)CC2)cc1` showed a relative solubility at 20 uM of 1 and a relative solubility at 100 uM of 1. Further, the inhibition in series [1] (50.0 µM) worked out at 7.79%. Further, the inhibition in series [2] (20.0 µM) was found to be 0%. Moreover, the inhibition in series [2] (50.0 µM) worked out at 0%.
Molecule `N#Cc1cccc(CNc2ccc(O)cc2)c1` registered a relative solubility at 20 uM of 1 and a relative solubility at 100 uM of 1. For the same molecule, the inhibition in series [1] (20.0 µM) turned out to be 9.73%. Besides, the inhibition in series [1] (50.0 µM) came to 2.32%. Moreover, the inhibition in series [2] (20.0 µM) was determined as 19.8%. Besides, in series [2] (50.0 µM), the inhibition came to 22.7%.
The molecule `Cc1ccncc1NS(=O)(=O)Cc1cccc(Cl)c1` displayed a relative solubility at 20 uM of 1 and a relative solubility at 100 uM of 0.99. Besides, the inhibition in series [1] (20.0 µM) came out at 4.3%. For the same molecule, the inhibition in series [1] (50.0 µM) worked out at 9.77%. Moreover, the inhibition in series [2] (50.0 µM) is 19%.
Molecule `C=CC(=O)N1CCN(Cc2cc(Cl)cc3ccccc23)CC1` had a relative solubility at 20 uM of 0.86 and a relative solubility at 100 uM of 0.75. Besides, the inhibition in series [1] (50.0 µM) is 37.9%. The inhibition in series [2] (20.0 µM) came to 0%. The inhibition in series [2] (50.0 µM) was 0%.
`C=CC(=O)N(c1ccc2c(ccn2C)c1)C(C(=O)NC(C)(C)C)c1cccnc1` (centres undefined) showed a relative solubility at 20 uM of 1.01 and a relative solubility at 100 uM of 1. Besides, the inhibition in series [1] (20.0 µM) is -17.6%. For the same molecule, the inhibition in series [1] (50.0 µM) was -18%. Moreover, the inhibition in series [2] (20.0 µM) is 0%.
In turn, `COc1ccccc1OCCN(C)C(=O)c1cc(=O)[nH]c2cc(F)ccc12` came in with a relative solubility at 20 uM of 1.01 and a relative solubility at 100 uM of 1. Also, the inhibition in series [1] (20.0 µM) is -3.47%. Further, the inhibition in series [1] (50.0 µM) was 7.57%. Moreover, the inhibition in series [2] (50.0 µM) was found to be 0%.
Molecule `O=C(NCc1ccno1)c1ccccc1Oc1ccc(Cl)cc1Cl` yielded a relative solubility at 20 uM of 1 and a relative solubility at 100 uM of 0.96. The inhibition in series [1] (20.0 µM) is -13%. For the same molecule, in series [1] (50.0 µM), the inhibition is -12.4%. Besides, the inhibition in series [2] (20.0 µM) worked out at 0%. The inhibition in series [2] (50.0 µM) was found to be 0%.
Take `O=C(NCC(O)Cn1ccnn1)c1ccccc1OC1CCC1` (centres undefined): the relative solubility at 20 uM stood at 1 and the relative solubility at 100 uM came out at 1. For the same molecule, in series [1] (20.0 µM), the inhibition was -1.11%. For the same molecule, the inhibition in series [1] (50.0 µM) was determined as 2.04%. The inhibition in series [2] (20.0 µM) stood at 0%. The inhibition in series [2] (50.0 µM) was determined as 0%.
As to `CS(=O)(=O)Nc1cccc(C(=O)Nc2cccc(N3CCCC3=O)c2)c1`, the relative solubility at 20 uM worked out at 1 and the relative solubility at 100 uM came out at 0.99. Also, the inhibition in series [1] (20.0 µM) worked out at 0.866%. Further, in series [1] (50.0 µM), the inhibition was found to be 5.19%. Further, the inhibition in series [2] (20.0 µM) amounted to 0%.
Turning to `COc1ccc(-c2cccc(S(=O)(=O)N3CCN(C(C)=O)CC3)c2)cc1`, the relative solubility at 20 uM was found to be 0.95 and the relative solubility at 100 uM was 0.93. The inhibition in series [1] (20.0 µM) was -3.55%. Further, in series [1] (50.0 µM), the inhibition is 2.93%. For the same molecule, in series [2] (50.0 µM), the inhibition was 0%.
In turn, `O=C1CN(c2nnc(C3CCC(=O)N3)n2CCn2cc(Cl)cn2)CCN1` (centres undefined) came in with a relative solubility at 20 uM of 1 and a relative solubility at 100 uM of 1. For the same molecule, the inhibition in series [1] (20.0 µM) is -2.26%. Also, the inhibition in series [1] (50.0 µM) was -0.405%. In series [2] (50.0 µM), the inhibition stood at 35.3%.
On to `C=CC(=O)N(c1ccc(C(C)(C)C)cc1)C(C(=O)NCCc1cccc(F)c1)c1cncc(Cl)c1` (centres undefined), for which the relative solubility at 20 uM is 0.71 and the relative solubility at 100 uM is 0.32. Further, the inhibition in series [1] (20.0 µM) was 24.2%. For the same molecule, the inhibition in series [1] (50.0 µM) worked out at 57.9%. The molecule also returned an IC50 in series [2] of 2.11 µM. The inhibition in series [2] (50.0 µM) stood at 60.6%.
In turn, `Cc1ccncc1NC(=O)CC(C)C(C)C` (centres undefined) gave a relative solubility at 20 uM of 1 and a relative solubility at 100 uM of 1. The inhibition in series [1] (20.0 µM) is -5.58%. Moreover, in series [1] (50.0 µM), the inhibition turned out to be 29.2%. Further, in series [2] (50.0 µM), the inhibition was determined as 6.99%.
On to `CC1(C)Cc2cccc(OCCNC(=O)c3cc(=O)[nH]c4cc(F)ccc34)c2O1`, for which the relative solubility at 20 uM was 0.97 and the relative solubility at 100 uM was 0.97. For the same molecule, the inhibition in series [1] (20.0 µM) amounted to 36.7%. Also, the inhibition in series [1] (50.0 µM) came to 69.9%. Besides, the inhibition in series [2] (50.0 µM) was found to be 13.8%.
The molecule `O=C(NCc1ccns1)Nc1cccc(CN2CCCC2=O)c1` yielded a relative solubility at 20 uM of 1 and a relative solubility at 100 uM of 0.97. In addition, the inhibition in series [1] (20.0 µM) is -0.28%. Besides, in series [1] (50.0 µM), the inhibition was -2.05%. Besides, the inhibition in series [2] (20.0 µM) is 0%. Further, the inhibition in series [2] (50.0 µM) came out at 0%.
Turning to `O=C(CCl)N1CCN(Cc2nc(-c3cccs3)no2)CC1`, the relative solubility at 20 uM is 0.98 and the relative solubility at 100 uM is 0.93. Moreover, in series [1] (20.0 µM), the inhibition amounted to 6.55%. Also, the inhibition in series [1] (50.0 µM) was 17%. Also, in series [2] (50.0 µM), the inhibition came out at 0%.
Molecule `O=C(NCc1cccnn1)Nc1cccc(OCCN2CCOCC2)c1` gave a relative solubility at 20 uM of 1 and a relative solubility at 100 uM of 0.99. In addition, in series [1] (20.0 µM), the inhibition stood at 1.16%. The inhibition in series [1] (50.0 µM) came to 1.22%. In addition, the inhibition in series [2] (20.0 µM) was determined as 0%. In addition, in series [2] (50.0 µM), the inhibition worked out at 0%.
For `O=C(Cc1c[nH]c2ncccc12)N1CCC(N2CCCS2(=O)=O)CC1`, the relative solubility at 20 uM was 1 and the relative solubility at 100 uM is 1.01. Also, the inhibition in series [1] (20.0 µM) is 18.5%. In addition, in series [1] (50.0 µM), the inhibition is -1.92%. In series [2] (20.0 µM), the inhibition is 0%.
`NS(=O)(=O)c1ccc(N2CCC(Nc3ccc(F)cc3)CC2)cc1` showed a relative solubility at 20 uM of 1 and a relative solubility at 100 uM of 0.89. Further, the inhibition in series [1] (50.0 µM) worked out at 8.08%. In series [2], the IC50 turned out to be 39.2 µM. Further, the inhibition in series [2] (20.0 µM) turned out to be 3.79%. Moreover, the inhibition in series [2] (50.0 µM) stood at 50.2%.
Take `CC(C)(C)CC(=O)C(C#N)C(=O)Nc1ccccc1` (centres undefined): the relative solubility at 20 uM was 1 and the relative solubility at 100 uM was found to be 1. In addition, the inhibition in series [1] (50.0 µM) is 21.6%. For the same molecule, the inhibition in series [2] (20.0 µM) stood at 2.52%. In addition, the inhibition in series [2] (50.0 µM) turned out to be 0%.
With `O=C(Cc1c[nH]c2ncccc12)NCc1cccc(Cl)c1`, the relative solubility at 20 uM came out at 1 and the relative solubility at 100 uM stood at 0.96. The inhibition in series [1] (20.0 µM) is 7.73%. Further, in series [1] (50.0 µM), the inhibition worked out at 9.03%. Moreover, in series [2] (20.0 µM), the inhibition worked out at 1.98%.
`O=C(COc1ccccc1)NCCc1ccccc1` displayed a relative solubility at 20 uM of 1 and a relative solubility at 100 uM of 1. Moreover, the inhibition in series [1] (20.0 µM) was -0.178%. Besides, in series [1] (50.0 µM), the inhibition is -0.0738%. Further, the inhibition in series [2] (20.0 µM) was found to be 0%. In addition, the inhibition in series [2] (50.0 µM) was 0%.
`C=CC(=O)N(c1ccc(C2(C)CC2)cc1)C(C(=O)NC(C)(C)C)c1cccnc1` (centres undefined) had a relative solubility at 20 uM of 1 and a relative solubility at 100 uM of 1. Further, the inhibition in series [1] (50.0 µM) was -13.5%. The inhibition in series [2] (20.0 µM) worked out at 0%. In addition, the inhibition in series [2] (50.0 µM) is 10.1%.
Regarding `COc1ccccc1OCC(C)NC(=O)c1cc(=O)[nH]c2cc(F)ccc12` (centres undefined), the relative solubility at 20 uM was found to be 1 and the relative solubility at 100 uM amounted to 0.99. In series [1], the IC50 worked out at 33 µM. Also, the inhibition in series [1] (20.0 µM) amounted to 46.9%. Also, the inhibition in series [1] (50.0 µM) amounted to 78.4%. Moreover, the inhibition in series [2] (50.0 µM) is 22%.
Regarding `CCCN(C(=O)Cc1cccc(Cl)c1)c1cccnc1`, the relative solubility at 20 uM was found to be 1 and the relative solubility at 100 uM was 1. Also, in series [1] (20.0 µM), the inhibition amounted to 2.28%. Besides, the inhibition in series [1] (50.0 µM) turned out to be 3.25%. For the same molecule, in series [2] (50.0 µM), the inhibition came to 36.2%.

The record behind these values is the COVID Moonshot data (paper PMC11187573), “Identification of SARS-CoV-2 Mpro inhibitors through deep reinforcement learning for de novo drug design and computational chemistry approaches” (RSC Medicinal Chemistry, 2024).
